Reference: patent US20260027116A1, “Methods of Treating Chronic Graft-Versus-Host Disease Following Allogeneic Hematopoietic Stem Cell Transplantation” (Kadmon Corporation, LLC, priority 2022, published 2026)

Key:
[1] = clinical drug interaction studies, effects of other drugs on belumosudil; assay type: in vivo, human; settings: healthy subjects
[2] = system: chronic graft-versus-host disease (cGVHD); experiment: Example 1 phase IIa study: response per 2014 NIH cGVHD criteria (ORR, BOR, DOR, TTR, TTNT, FFS, OS, organ response); assay type: in vivo, human; settings: for DOR, median (95% CI) / TTR, median: responder population
Text: Eligible patients were allogeneic bone marrow transplant or allogeneic hematopoietic cell transplant (alloHCT) recipients of age≥18 years with persistent cGVHD manifestations after having received one to three prior systemic lines of therapy and who were receiving corticosteroid treatment with or without a calcincurin inhibitor and/or concurrent extracorporeal photopheresis.
Inclusion criteria. Adult male and female subjects at least 18 years of age who had allogenic bone marrow transplant or hematopoietic stem cell transplantation. Received glucocorticoid therapy and calcineurin therapy or glucocorticoid therapy alone for cGVHD at study entry. Participants on calcineurin therapy only, without glucocorticoid therapy, were not eligible. Participants also received other therapies thought not to be immunosuppressive (such as extracorporeal photopheresis; ECP), were considered for enrollment in this study on a case-by-case basis. […] No more than 3 prior lines of treatment for cGVHD. Karnofsky Performance Scale of greater than (>) 40.
Exclusion Criteria. Participant who was pregnant or breastfeeding. Received an investigational GVHD treatment within 28 days of study entry. Had acute GVHD. Taken any medication known to be a moderate or strong inhibitor of the cytochrome (CY) P3A4 isozyme or any drugs that are moderate or strong CYP3A4 inducers. History or other evidence of severe illness or any other conditions that would make the participant, in the opinion of the investigator, unsuitable for the study (such as poorly controlled psychiatric disease or coronary artery disease). Regular and excessive use of alcohol within the 6 months prior to study entry defined as alcohol intake>14 drinks per week in a man or >7 drinks per week in a woman. Approximately 10 grams of alcohol equals one “drink” unit. One unit equals 1 ounce of distilled spirits, one 12-ounce beer, or one 4-ounce glass of wine. Known history of human immunodeficiency virus or active hepatitis C virus or hepatitis B virus. Diagnosed with another malignancy (other than malignancy for which transplant was performed) within 3 years of enrollment, with the exception of completely resected basal cell or squamous cell carcinoma of the skin, resected in situ cervical malignancy, resected breast ductal carcinoma in situ, or low-risk prostate cancer after curative resection. Relapse of the underlying cancer or post-transplant lymphoproliferative disease at the time of screening. […] Taken other immunosuppressant drugs for GVHD, including mammalian target of rapamycin inhibitors (Note: Only steroids, calcineurin inhibitors, and ECP are acceptable). Corrected QT interval using Fridericia's formula >450 milliseconds.
(FIG. 1) Before enrollment of the subsequent cohort, safety data in each previous cohort were analyzed after eight patients reached two months of treatment to assure that there was no safety signal. […] No safety concerns were identified, allowing for planned dose escalation.
Progression was defined per the 2014 NIH cGVHD Consensus Criteria. Long-term follow-up was conducted every 8 weeks until study closeout. […] Screening was conducted within 28 days of the first study dose. Response was initially assessed after two cycles; however, this was amended to evaluate response on day 1 of each cycle, starting at cycle 2 day 1.
All responses were assessed by the investigators.
Assuming a best ORR of 25%, which was determined to be clinically meaningful, the study was expected to have approximately 90% probability to show a response in ≥2 patients per cohort. This study was not powered to show significant differences between cohorts with respect to efficacy, AEs, or PD analyses. The primary analysis was conducted using the safety population, defined as enrolled patients who received ≥1 dose of study medication. The Clopper-Pearson (exact) method was used to construct the two-sided 95% CI for ORR. The Kaplan-Meier (K-M) method was used to calculate estimates of FFS and OS. […]

For `CC(C)NC(=O)COc1cccc(-c2nc(Nc3ccc4[nH]ncc4c3)c3ccccc3n2)c1` [Belumosudil, 2-{3-[4-(1H-indazol-5-ylamino)-2-quinazolinyl]phenoxy}-N-(propan-2-yl) acetamide], the “decrease of belumosudil AUC with omeprazole” value [1] was 47%, the “decrease of belumosudil AUC with rabeprazole” value [1] was 80% and the “decrease of belumosudil AUC with rifampin” value [1] was 72%. The “decrease of belumosudil Cmax with omeprazole” value [1] was 68%, the “decrease of belumosudil Cmax with rabeprazole” value [1] was 87% and the “decrease of belumosudil Cmax with rifampin” value [1] was 59%. For the same compound, the “effect of itraconazole on belumosudil exposure” value [1] was “no clinically meaningful effect”, the “BOR CR, participants (%)” value ([2]; Cohort 1 200 mg QD) was 0 (0%) participants and the “BOR LOR-M, participants (%)” value ([2]; Cohort 1 200 mg QD) was 2 (12%) participants. For the same compound, the “BOR LOR-P, participants (%)” value ([2]; Cohort 1 200 mg QD) was 2 (12%) participants, the “BOR LOR-U, participants (%)” value ([2]; Cohort 1 200 mg QD) was 2 (12%) participants and the “BOR PR, participants (%)” value ([2]; Cohort 1 200 mg QD) was 11 (65%) participants. For the same compound, the “FFS, median (95% CI)” value ([2]; Cohort 1 200 mg QD) was 11 (4-na* %) months, the “ORR subgroup refractory to previous LOT, n/N” value (shortened to “ORR subgroup refractory … n/N”) ([2]; Cohort 1 200 mg QD) was 7/11 and the “ORR subgroup severe cGVHD, n/N” value ([2]; Cohort 1 200 mg QD) was 8/12. For the same compound, the “ORR subgroup ≤2 prior LOTs, n/N” value ([2]; Cohort 1 200 mg QD) was 10/15, the “ORR subgroup ≤4 organs involved, n/N” value ([2]; Cohort 1 200 mg QD) was 4/8 and the “ORR, % (95% CI)” value ([2]; Cohort 1 200 mg QD) was 65%. For the same compound, the “TTNT, median (95% CI)” value ([2]; Cohort 1 200 mg QD) was 15 (5-NA* %) months, the “best response (CR or PR) in Skin, percentage of participants” value ([2]; Cohort 1 200 mg QD) was “(23%)” and the “best response in Esophagus, percentage of participants” value ([2]; Cohort 1 200 mg QD) was “(50%)”. The “best response in Eyes, percentage of participants” value (“best response in Eyes, percentage” for short) ([2]; Cohort 1 200 mg QD) was “(36%)”, the “best response in Joints and Fascia, percentage of participants” value ([2]; Cohort 1 200 mg QD) was “(55%)” and the “best response in Lower GI tract, percentage of participants” value ([2]; Cohort 1 200 mg QD) was “(0%)”. The “best response in Lungs, percentage of participants” value (from here on “best response in Lungs, percentage”) ([2]; Cohort 1 200 mg QD) was “(0%)”, the “best response in Mouth, percentage of participants” value (shortened to “best response in Mouth, percentage”) ([2]; Cohort 1 200 mg QD) was “(46%)” and the “best response in Upper GI tract, percentage of participants” value ([2]; Cohort 1 200 mg QD) was “(100%)”. For the same compound, the “DOR, median (95% CI)” value ([2]; Cohort 1, 200 mg QD) was 40 (8-na* %) weeks, the “TTR, median” value ([2]; Cohort 1, 200 mg QD) was 8.14 weeks and the “BOR CR, participants (%)” value ([2]; Cohort 2 200 mg BID) was 0 (0%) participants. The “BOR LOR-M, participants (%)” value ([2]; Cohort 2 200 mg BID) was 1 (6%) participants, the “BOR LOR-P, participants (%)” value ([2]; Cohort 2 200 mg BID) was 1 (6%) participants and the “BOR LOR-U, participants (%)” value ([2]; Cohort 2 200 mg BID) was 3 (19%) participants. For the same compound, the “BOR PR, participants (%)” value ([2]; Cohort 2 200 mg BID) was 11 (69%) participants, the “FFS, median (95% CI)” value ([2]; Cohort 2 200 mg BID) was 10 (4-19%) months and the “ORR subgroup refractory … n/N” value ([2]; Cohort 2 200 mg BID) was 6/9. The “ORR subgroup severe cGVHD, n/N” value ([2]; Cohort 2 200 mg BID) was 9/14, the “ORR subgroup ≤2 prior LOTs, n/N” value ([2]; Cohort 2 200 mg BID) was 5/8 and the “ORR subgroup ≤4 organs involved, n/N” value ([2]; Cohort 2 200 mg BID) was 8/10. For the same compound, the “ORR, % (95% CI)” value ([2]; Cohort 2 200 mg BID) was 69%, the “TTNT, median (95% CI)” value ([2]; Cohort 2 200 mg BID) was 10 (4-19%) months and the “best response (CR or PR) in Skin, percentage of participants” value ([2]; Cohort 2 200 mg BID) was “(17%)”. The “best response in Eyes, percentage” value ([2]; Cohort 2 200 mg BID) was “(36%)”, the “best response in Joints and Fascia, percentage of participants” value ([2]; Cohort 2 200 mg BID) was “(46%)” and the “best response in Liver, percentage of participants” value ([2]; Cohort 2 200 mg BID) was “(50%)”. For the same compound, the “best response in Lower GI tract, percentage of participants” value ([2]; Cohort 2 200 mg BID) was “(100%)”, the “best response in Lungs, percentage” value ([2]; Cohort 2 200 mg BID) was “(0%)” and the “best response in Mouth, percentage” value ([2]; Cohort 2 200 mg BID) was “(46%)”. The “best response in Upper GI tract, percentage of participants” value ([2]; Cohort 2 200 mg BID) was “(100%)”, the “DOR, median (95% CI)” value ([2]; Cohort 2, 200 mg BID) was 11 (2-35%) weeks and the “TTR, median” value ([2]; Cohort 2, 200 mg BID) was 8.14 weeks. The “BOR CR, participants (%)” value ([2]; Cohort 3 400 mg QD) was 0 (0%) participants, the “BOR LOR-M, participants (%)” value ([2]; Cohort 3 400 mg QD) was 0 (0%) participants and the “BOR LOR-P, participants (%)” value ([2]; Cohort 3 400 mg QD) was 1 (5%) participants. For the same compound, the “BOR LOR-U, participants (%)” value ([2]; Cohort 3 400 mg QD) was 4 (19%) participants, the “BOR PR, participants (%)” value ([2]; Cohort 3 400 mg QD) was 12 (57%) participants and the “FFS, median (95% CI)” value ([2]; Cohort 3 400 mg QD) was 10 (3-16%) months. For the same compound, the “ORR subgroup refractory … n/N” value ([2]; Cohort 3 400 mg QD) was 9/15, the “ORR subgroup severe cGVHD, n/N” value ([2]; Cohort 3 400 mg QD) was 8/16 and the “ORR subgroup ≤2 prior LOTs, n/N” value ([2]; Cohort 3 400 mg QD) was 8/12. The “ORR subgroup ≤4 organs involved, n/N” value ([2]; Cohort 3 400 mg QD) was 7/9, the “ORR, % (95% CI)” value ([2]; Cohort 3 400 mg QD) was 62% and the “TTNT, median (95% CI)” value ([2]; Cohort 3 400 mg QD) was 14 (3-NA %) months. The “best response (CR or PR) in Skin, percentage of participants” value ([2]; Cohort 3 400 mg QD) was “(13%)”, the “best response in Esophagus, percentage of participants” value ([2]; Cohort 3 400 mg QD) was “(25%)” and the “best response in Eyes, percentage” value ([2]; Cohort 3 400 mg QD) was “(24%)”. The “best response in Joints and Fascia, percentage of participants” value ([2]; Cohort 3 400 mg QD) was “(42%)”, the “best response in Lower GI tract, percentage of participants” value ([2]; Cohort 3 400 mg QD) was “(0%)” and the “best response in Lungs, percentage” value ([2]; Cohort 3 400 mg QD) was “(30%)”. For the same compound, the “best response in Mouth, percentage” value ([2]; Cohort 3 400 mg QD) was “(46%)”, the “best response in Upper GI tract, percentage of participants” value ([2]; Cohort 3 400 mg QD) was “(50%)” and the “DOR, median (95% CI)” value ([2]; Cohort 3, 400 mg QD) was 16 (4-38%) weeks. For the same compound, the “TTR, median” value ([2]; Cohort 3, 400 mg QD) was 8.07 weeks, the “2-year OS rate” value ([2]; Example 1) was 82% and the “12-month FFS rate with response” value ([2]; Example 1) was 24%. The “ORR among patients with nonsevere cGVHD” value ([2]; Example 1) was 83%, the “median DOR across all responders” value ([2]; Example 1) was 35 weeks and the “share of all responses achieved by first response assessment at week 8” value ([2]; Example 1) was over 75%. The FFS rate ([2]; Example 1, at 6 months) was 76%, the FFS rate ([2]; Example 1, at 12 months) was 47% and the “median TTNT” value ([2]; Example 1, pooled) was 14 months. The “patients with progression in joints” value ([2]; Example 1, safety population (FIG. 3B)) was 11 patients, the “ORR subgroup refractory to previous LOT, % (95% CI)” value ([2]; Total, N=54) was 63% and the “ORR subgroup severe cGVHD, % (95% CI)” value ([2]; Total, N=54) was 60%. For the same compound, the “ORR subgroup ≤2 prior LOTs, % (95% CI)” value ([2]; Total, N=54) was 66%, the “ORR subgroup ≤4 organs involved, % (95% CI)” value ([2]; Total, N=54) was 70% and the “ORR, % (95% CI)” value ([2]; Total, N=54) was 65%. For the same compound, the “ORR subgroup refractory … n/N” value ([2]; Total, N=54, listed as KD025) was 22/35, the “ORR subgroup severe cGVHD, n/N” value ([2]; Total, N=54, listed as KD025) was 25/42 and the “ORR subgroup ≤2 prior LOTs, n/N” value ([2]; Total, N=54, listed as KD025) was 23/35. The “ORR subgroup ≤4 organs involved, n/N” value ([2]; Total, N=54, listed as KD025) was 19/27.
